Results from patent publication EP2096113A1, “9-substituted camptothecin derivatives as antitumor compounds” (SIGMA-TAU Industrie Farmaceutiche Riunite S.p.A., priority 2008, dated 2009).
Read-outs that look alike come from different tables or passages of the source.

Key:
[1] = system: NCI-H460 non-microcytoma lung cancer cells; experiment: Cytotoxic activity on NCI-H460 cells (sulforodamine B test); assay type: cell-based; conditions: product concentration that inhibits cell survival by 50%; 2 hours incubation with products, then another 72 hours in drug-free medium; optical density at 540 nm; read-out: IC50 (µM) H-460
Experimental: NCI-H460 non-microcytoma lung cancer cells were kept in RPMI 1640 culture medium containing 10% FCS and 1% glutamine. The cytotoxicity test to analyse the activity of the molecules was performed as follows. The cells were seeded in a volume of 250 µl in 96-well plates and incubated for 2 hours at 37°C with scalar concentrations of the products in a humidified atmosphere containing 5% CO2. At the end of the incubation, the molecules were removed by overturning the plates and adding sterile buffered saline solution (PBS) three times. The RPMI 1640 culture medium containing 10% FCS (200 µl) was added to the wells and the plates were incubated for another 72 hours. At the end of the incubation, the plates were overturned again and dried on paper, before adding 200 µl of PBS and 50 µl of 80% TCA. The plates were incubated again in ice for at least 1 hour. The TCA was removed by overturning the plates and the plates were first dried on paper and then washed three times by immersion in distilled water and overturning. The plates were dried first on paper and then in a thermostatically regulated incubator at 60°C for 10 min. 200 µl of 0.4% sulforodamine B in 1% acetic acid were added to all wells. The plates were incubated at room temperature for another 30 min. The sulforodamine B was removed by overturning, the plates were washed by immersion in 1% acetic acid three times and then dried first on blotting paper and then in the thermostat at 60°C for 10 min. Lastly, 200 µl of Tris base 10 mM were added to all wells and the plates were subjected to stirring for at least 20 min. The optical density was measured with a Multiskan spectrophotometer at 540 nm. Incubation with the products was capable of inhibiting proliferation in a concentration-dependent manner. Table 1 presents the IC50 values (product concentration that inhibits cell survival by 50%]. IC50 values for topotecan have also been reported for comparison purposes (Dallavalle S. et al., J. Med. Chem., 44, 3264-74, 2001). Table 1.

[2] = system: NCI-H460 non-microcytoma lung cancer cells; conditions: topotecan value reported for comparison, from Dallavalle S. et al., J. Med. Chem., 44, 3264-74, 2001; read-out: IC50 (µM) H-460; cited from earlier work

SMILES	IC50 [1]	IC50 [2]
CC[C@@]1(O)C(=O)OCc2c1cc1n(c2=O)Cc2cc3c(C=NOC(C)(C)C)c(OC)ccc3nc2-1 [10-OCH3-CPT-9-CH=NOC(CH3)3, 10-methoxy-9-tert-butoxyiminomethylcamptothecin]	0.31 µM	–
CC[C@@]1(O)C(=O)OCc2c1cc1n(c2=O)Cc2cc3c(C#N)c(OC)ccc3nc2-1 [10-OCH3-CPT-9-CN, 10-Methoxy-9-cyanocamptothecin]	0.27 µM	–
CC[C@@]1(O)C(=O)OCc2c1cc1n(c2=O)Cc2cc3c(C=NOC(C)(C)C)c(O)ccc3nc2-1 [10-OH-CPT-9-CH=NOC(CH3)3, 10-hydroxy-9-tert-butoxyiminomethylcamptothecin]	0.35 µM	–
CC[C@@]1(O)C(=O)OCc2c1cc1n(c2=O)Cc2cc3c(C=NOC(C)(C)C)cccc3nc2-1 [CPT-9-CH=NOC(CH3)3, 9-tert-Butoxyiminomethylcamptothecin]	0.067 µM	–
CC[C@@]1(O)C(=O)OCc2c1cc1n(c2=O)Cc2cc3c(C=NOCCN)cccc3nc2-1 [CPT-9-CH=NOCH2CH2NH2, 9-(2-Aminoethoxy)iminomethylcamptothecin]	2.53 µM	–
CC[C@@]1(O)C(=O)OCc2c1cc1n(c2=O)Cc2cc3c(CN(C)C)c(O)ccc3nc2-1 [topotecan, 10-hydroxy-9-dimethylaminomethylcamptothecin]	–	1.38 µM
